According to paper PMC4147378 (Bioorganic & medicinal chemistry, 2014):
Entries after “also recorded” stand apart in the source; their conditions may differ.

Tests used:
[1] = biological target: T1, GST-hFXR-LBD (Homo sapiens, UniProt Q96RI1); assay: FXR TR-FRET binding assay; settings: Table 3; ratio fits the TR-FRET binding IC50
T1 sequence (Q96RI1 262-486 limits assumed): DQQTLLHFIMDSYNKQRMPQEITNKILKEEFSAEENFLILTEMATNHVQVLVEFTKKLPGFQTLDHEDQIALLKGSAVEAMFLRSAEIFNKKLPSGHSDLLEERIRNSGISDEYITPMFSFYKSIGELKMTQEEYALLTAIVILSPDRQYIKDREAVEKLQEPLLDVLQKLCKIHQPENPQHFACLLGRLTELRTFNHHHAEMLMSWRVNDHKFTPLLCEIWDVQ

[2] = biological target: T2, FXR (Homo sapiens, UniProt Q96RI1); assay: GeneBLAzer FXR cell-based agonistic; settings: compound alone, without GW4064; data not shown
T2 sequence (Q96RI1 262-486 limits assumed): T1 sequence (Q96RI1 262-486 limits assumed)

[3] = system: GeneBLAzer FXR-UAS-bla HEK 293T cells; assay: Cytotoxicity assay in GeneBLAzer FXR cells; format: cell-based, human
[4] = biological target: T2, FXR; assay: GeneBLAzer FXR cell-based antagonistic; settings: data not shown

Row | Compound | activity against FXR at 1 µM [4] | other results
1 | Cc1ccc(-c2nn(CC3CC3)cc2C(=O)Nc2ccc(C)c(S(=O)(=O)N3CCOCC3)c2)cc1 [Compound 4i, 1-(Cyclopropylmethyl)-N-(4-methyl-3-(morpholinosulfonyl)phenyl)-3-(p-tolyl)-1H-pyrazole-4-carboxamide] | – | fold decreased activity for FXR as compared to E16 [1]: 2 fold
2 | COc1cccc(Cn2cc(C(=O)Nc3ccc(C)c(S(=O)(=O)N4CCOCC4)c3)c(-c3ccc(C)cc3)n2)c1 [Compound 4j, 1-(3-Methoxybenzyl)-N-(4-methyl-3-(morpholinosulfonyl)phenyl)-3-(p-tolyl)-1H-pyrazole-4-carboxamide] | – | FXR agonistic activity [2]: no detectable; also recorded: no FXR agonistic activity; also recorded: does not have any; cytotoxicity [3]: no detectable; also recorded: no cytotoxicity; also recorded: does not have any
3 | Cc1ccc(-c2nn(C(C)C)cc2C(=O)N(C)c2ccc(C)c(S(=O)(=O)N3CCOCC3)c2)cc1 [Compound 8a, 1-Isopropyl-N-methyl-N-(4-methyl-3-(morpholinosulfonyl)phenyl)-3-(p-tolyl)-1H-pyrazole-4-carboxamide] | essentially inactive | –

More lines, main results first:

Row | activity against FXR at 1 µM [4] | Compound | other results
4 | essentially inactive | COc1cccc(Cn2cc(C(=O)N(C)c3ccc(C)c(S(=O)(=O)N4CCOCC4)c3)c(C(C)C)n2)c1 [Compound 8b, 3-Isopropyl-1-(3-methoxybenzyl)-N-methyl-N-(4-methyl-3-(morpholinosulfonyl)phenyl)-1H-pyrazole-4-carboxamide] | –
5 | essentially inactive | COc1cccc(Cn2cc(C(=O)N(C)c3ccc(C)c(S(=O)(=O)N4CCOCC4)c3)c(-c3cccc(OC)c3)n2)c1 [Compound 8c, 1-(3-Methoxybenzyl)-3-(3-methoxyphenyl)-N-methyl-N-(4-methyl-3-(morpholinosulfonyl)phenyl)-1H-pyrazole-4-carboxamide] | –
